Columns and labels:
[1] = tested on: Akt (Ser473); assay: Western blot, activating phosphorylation of Akt (Ser473); assay type: cell-based; settings: n = 4–8; for insulin-induced Akt phosphorylation: 400 nmol/L insulin, adipocytes, HEK cells, podocytes, macrophages; for basal Akt phosphorylation: without insulin, cells grown on o- or m-Tyr medium
Protocol: (§1) Early passages of mouse embryo fibroblast (3T3-L1) (ATCC, Manassas, VA, US) were cultured in Dulbecco’s modified Eagle medium (DMEM, Sigma Aldrich, Budapest, Hungary, CAT number: D6046; Invitrogen, Waltham, MA, USA, CAT number: 41966-029) supplemented with 100 U/mL penicillin, 0.1 mg/mL streptomycin (Gibco, Budapest, Hungary, CAT number: 15070-063) and 10% heat-inactivated Fetal Bovine Serum (FBS, Gibco, CAT number: 16170-078), supplemented with 398 nM p-, m-, or o-Tyr (equimolar to the original p-Tyr content of the medium) purchased from Sigma (CAT number: para-Tyr: T8566, m-Tyr: T3629, o-Tyr: 93851). Media contained 25 or 5 mmol/L glucose (experiment dependent) pyruvate and L-glutamine. Cells were grown at 37 °C and 5% CO2. Adipocyte differentiation was achieved by DMEM supplemented with 10% FBS (Gibco, Csertex, Budapest, Hungary, CAT number: 10106-169) (FBS) and a […] insulin (Sigma Aldrich, Budapest, Hungary, CAT number: I 9278), […] isobuthylmethylxanthine (Sigma Aldrich, Budapest, Hungary, CAT number: I 5879), and 250 nmol/L dexamethasone (Sigma Aldrich, Budapest, Hungary, CAT number: 861871) containing cocktail. From day 4 onward, cultures were maintained in DMEM containing 1.5 μg/mL insulin and 10% FBS with a medium change every other day until experimental treatments were started. After 90% of the cell population reached the adipocyte phenotype, prior to all treatments, cells were incubated overnight in serum-deprived medium. Experimental treatment was performed in serum-deprived medium containing 200 or 400 nmol/L insulin, for 5 min.
(§2) The conditionally immortalized human podocyte cell line (provided by Moin Saleem, University of Bristol, UK) was cultured in RPMI1640 medium (R8756, Sigma Aldrich, Budapest, Hungary) supplemented with 10% heat-inactivated FBS (16170-078, Gibco, Budapest, Hungary), insulin-transferrin-selenium supplement (41400-045, Gibco), 100 U/mL penicillin, 0.1 mg/mL streptomycin (P4333, Sigma), and […] (equimolar to the original p-Tyr content of the medium) para-, meta-, or ortho-Tyr. The cells were grown at 33 °C 5% CO2, and when they reached 40–60% confluency they were transferred to 37 °C to differentiate. Following the thermoswitching, cells were kept on RPMI1640 medium containing 2% FBS, antibiotics, and different tyrosines. Before every treatment, cells were incubated in serum-deprived medium overnight.
HEK-293 immortalized cell line (ATCC, Manassas, VA, USA) of epithelial morphology and the J774A.1 mouse BALB/C monocyte-macrophage cell lines (91051511-1VL, Sigma Aldrich, Budapest, Hungary) were cultured in Petri dishes with a medium composed of Dulbecco’s modified Eagle’s medium (DMEM, Sigma Aldrich, Budapest, Hungary, CAT number: D6046, Invitrogen, CAT number: 41966-029), with a 10% heat-inactivated FBS supplementation (16170-078, Gibco), insulin-transferrin-selenium supplement (41400-045, Gibco, Budapest, Hungary,), 100 U/mL penicillin and 0.1 mg/mL streptomycin (P4333, Sigma) and 398 nM para (5 and 25 mmol/L), meta-, or ortho-Tyr (T8566, T3629, 93851, Sigma). Before treatment, cells were incubated in serum-deprived medium overnight as well. […]
The samples of lysates were vortexed and centrifuged (10 min, 13,000 rpm, at 4 °C). Protein content of the samples was determined by the Lowry method using bovine serum albumin as a standard. […]

[2] = tested on: total proteins of cells; assay: HPLC of protein-bound tyrosines (incorporation into cellular proteins); assay type: cell-based; settings: cells grown on o-Tyr or m-Tyr; n = 5–10
Protocol: as §1
as §2, with “overnight. […]” for “overnight.”
The total protein-bound cellular tyrosine content was measured by adding 200 μL of distilled water to the samples, followed by freezing overnight at −70 °C to achieve cell lysis. […]

[3] = tested on: 3T3-L1 adipocytes; assay: Isotope glucose uptake (deoxy-D-glucose 2-[1 2-3H(N)]) in differentiated 3T3-L1 adipocytes; assay type: cell-based, mouse; settings: for insulin-induced glucose uptake, time dependence: 200 nmol/L insulin, cells grown 1, 2, 3, 4, 5 or 12 days with p-, n = 5–8; for insulin-induced glucose uptake, time dependence / insulin-induced glucose uptake, 5 mmol/L glucose: m- or o-Tyr; for insulin-induced glucose uptake, 5 mmol/L glucose: 2, 20, 200, 400 nmol/L insulin, medium with p-; for non-stimulated (basal) glucose uptake: no insulin, cells grown 1-12 days with m- or o-Tyr, vs. p-Tyr control
Protocol: as §1
Initially, cells were kept in glucose-free DMEM (Gibco, Csertex, Budapest, Hungary) for 30 min and then were treated with 2, 20, 200, or 400 nmol/L insulin for 100 min. Concurrently, 1 μCi/mL deoxy-D-glucose 2-[1 2-3H(N)] (3.7 × 104 Bq/mL) (Izotóp Intézet, Budapest, Hungary) was added to the plates for 100 min. After scraping the cells into the medium, they were centrifuged for 5 min at 1000 rpm. We dissolved the sediment in 70 μL of lysis buffer, then glucose uptake was determined by scintillation counting by measuring 30 μL of the sample, using a Beckman LS 5000 TD counter, in counts per minute (CPM), for five minutes each, with average activity was used as the outcome. Following freezing overnight at −70 °C, protein concentration was measured with a Hitachi spectrophotometer. Results were normalized for protein content.

[4] = tested on: erythroblasts; settings: ref [43]; cited from earlier work
Text: Furthermore, m- and o-Tyr may have a role beyond being markers ROS attack. […] For example, we have described that patients on renal replacement therapy show a connection between plasma levels of o-Tyr and erythropoietin (EPO) resistance. In a further set of experiments, m- and o-Tyr in ...

SMILES: NC(Cc1ccccc1O)C(=O)O (stereo not shown) [o-Tyr, ortho-tyrosine]
- insulin-induced Akt phosphorylation [1]: could not be further raised by insulin treatment
- basal Akt phosphorylation [1]: either unchanged or higher
- protein-bound o-Tyr/p-Tyr and m-Tyr/p-Tyr ratio [2]: increased
- protein-bound p-Tyr/Phe ratio [2]: either a decrease or remained unchanged
- insulin-induced glucose uptake, time dependence [3]: no significant effect
- insulin-induced glucose uptake, 5 mmol/L glucose [3]: failed to induce the glucose uptake
- non-stimulated (basal) glucose uptake [3]: lower than that of the p-Tyr control
- EPO-dependent proliferation of erythroblasts [4]: inhibited the EPO-dependent proliferation of erythroblasts, in a time- and dose-dependent manner

SMILES: N[C@@H](Cc1cccc(O)c1)C(=O)O [m-Tyr, meta-tyrosine]
- insulin-induced Akt phosphorylation [1]: could not be further raised by insulin treatment
- basal Akt phosphorylation [1]: either unchanged or higher
- protein-bound o-Tyr/p-Tyr and m-Tyr/p-Tyr ratio [2]: increased
- protein-bound p-Tyr/Phe ratio [2]: either a decrease or remained unchanged
- insulin-induced glucose uptake, time dependence [3]: no significant effect
- insulin-induced glucose uptake, 5 mmol/L glucose [3]: failed to induce the glucose uptake
- non-stimulated (basal) glucose uptake [3]: lower than that of the p-Tyr control
- EPO-dependent proliferation of erythroblasts [4]: inhibited the EPO-dependent proliferation of erythroblasts, in a time- and dose-dependent manner
